From US9938261B2, “Heterocyclic compounds and methods of use thereof” (AMBIT BIOSCIENCES CORPORATION, priority 2011, dated 2018)

Legend:
KIT = target: T1, KIT (Homo sapiens, UniProt P10721); test: Competition binding assay, KIT Kd; conditions: competition binding
T1 construct: made in house
In short: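 Phage-fused or HEK-293/DNA-tagged kinase + ligand-coated streptavidin beads + compound, 1 h RT with shaking. Wash, elute with free ligand 30 min RT, qPCR of eluted kinase. Kd: 11-point 3-fold series.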

M-NFS-60 cells = test: M-NFS-60 cell proliferation assay (Alamar Blue); type: cell-based, mouse; conditions: Mus musculus; M-NFS-60 cell proliferation; read-out: CSF1R M-NFS-60 CTB:IC50
In short: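 Mouse M-NFS-60 cells growing on 20 ng/mL M-CSF in RPMI/10% FBS were exposed to compounds (9 half-log concentrations, 0.5% DMSO) for 72 h at 37 °C. Viability read by Alamar Blue fluorescence (ex 560/em 590 nm, 3 h). IC50 = 50% proliferation inhibition versus control, mean of duplicates.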

[1] = target: kinase panel containing either 386 or 392 distinct kinases; test: Kinase selectivity score S10 from competition binding panel; conditions: 10 μM, panel of 386 or 392 distinct kinases
In short: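 Compounds at 10 μM competed against immobilised affinity ligands for T7 phage-fused or HEK-293-expressed DNA-tagged kinases, 1 h at room temperature; bound kinase eluted and quantified by qPCR. S10 = fraction of distinct non-mutant kinases with percent of DMSO control below 10.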

T1 sequence (P10721 26-976): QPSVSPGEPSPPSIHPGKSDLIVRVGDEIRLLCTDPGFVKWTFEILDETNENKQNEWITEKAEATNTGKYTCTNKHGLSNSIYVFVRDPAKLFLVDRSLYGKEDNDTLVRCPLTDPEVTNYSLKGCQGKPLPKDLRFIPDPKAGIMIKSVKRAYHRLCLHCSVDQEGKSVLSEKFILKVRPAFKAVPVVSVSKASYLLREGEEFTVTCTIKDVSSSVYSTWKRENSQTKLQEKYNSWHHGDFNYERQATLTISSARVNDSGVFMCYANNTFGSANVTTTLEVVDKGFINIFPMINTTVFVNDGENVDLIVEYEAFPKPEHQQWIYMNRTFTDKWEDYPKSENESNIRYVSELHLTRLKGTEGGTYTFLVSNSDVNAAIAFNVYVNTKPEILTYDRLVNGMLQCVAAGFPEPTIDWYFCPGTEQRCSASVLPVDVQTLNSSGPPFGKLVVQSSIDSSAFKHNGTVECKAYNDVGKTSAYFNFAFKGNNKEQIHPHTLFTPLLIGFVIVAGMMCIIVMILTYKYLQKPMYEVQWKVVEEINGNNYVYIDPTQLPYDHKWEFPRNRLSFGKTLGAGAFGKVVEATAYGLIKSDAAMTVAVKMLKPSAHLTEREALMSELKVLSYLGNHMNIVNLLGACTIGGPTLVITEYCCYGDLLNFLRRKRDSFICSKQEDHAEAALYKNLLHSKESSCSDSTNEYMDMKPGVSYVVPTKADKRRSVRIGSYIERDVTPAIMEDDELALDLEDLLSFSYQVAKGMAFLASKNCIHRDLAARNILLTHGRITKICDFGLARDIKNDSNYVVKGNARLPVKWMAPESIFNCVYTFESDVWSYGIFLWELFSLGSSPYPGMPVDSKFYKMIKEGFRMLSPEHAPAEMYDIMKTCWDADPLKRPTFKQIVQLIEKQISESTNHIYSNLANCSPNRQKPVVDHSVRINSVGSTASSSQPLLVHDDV

Kd (KIT) [nM] | Kinase specificity S(10) [1] | Compound | IC50 (M-NFS-60 cells) [nM]
≤ 100 | A (A≤0.01) | O[C@@H]1CCCC[C@H]1Nc1nc2ccc(Cn3cnc4cc(Cl)c(Cl)nc43)cc2s1 [Example 137, (1R,2R)-2-((6-((5,6-dichloro-3H-imidazo[4,5-b]pyridin-3-yl)methyl)benzo[d]thiazol-2-yl)amino)cyclohexanol] | ≤ 50
≤ 100 | B (0.01<B≤0.02) | O[C@@H]1CCCC[C@H]1Nc1nc2ccc(Cn3cnc4cc(F)ccc43)cc2s1 [Example 129, (1R,2R)-2-((6-((5-fluoro-1H-benzo[d]imidazol-1-yl)methyl)benzo[d]thiazol-2-yl)amino)cyclohexanol] | 50 to 400
≤ 100 | B (0.01<B≤0.02) | OC[C@H]1CCCC[C@H]1Nc1nc2ccc(Cn3cnc4cc(Br)cnc43)cc2s1 [Example 136, ((1S,2R)-2-((6-((6-bromo-3H-imidazo[4,5-b]pyridin-3-yl)methyl)benzo[d]thiazol-2-yl)amino)cyclohexyl)methanol] | 50 to 400
> 2000 | A (A≤0.01) | O[C@@H]1CCCC[C@H]1Nc1nc2ccc(Cc3cnc4sccn34)cc2s1 [Example 157, (1R,2R)-2-((6-(imidazo[2,1-b]thiazol-5-ylmethyl)benzo[d]thiazol-2-yl)amino)cyclohexanol] | 400 to 1500
100 to 500 | A (A≤0.01) | O[C@@H]1CCCC[C@H]1Nc1nc2ccc(Cn3cnc4cc(C(F)(F)F)ccc43)cc2s1 [Example 130, (1R,2R)-2-((6-((5-(trifluoromethyl)-1H-benzo[d]imidazol-1-yl)methyl)benzo[d]thiazol-2-yl)amino)cyclohexanol] | 50 to 400
≤ 100 | A (A≤0.01) | O[C@@H]1[C@H](O)CCC[C@H]1Nc1nc2ccc(Cn3cnc4cc(OC5COC5)ccc43)cc2s1 [Example 233, (1R,2S,3R)-3-((6-((5-(oxetan-3-yloxy)-1H-benzo[d]imidazol-1-yl)methyl)benzo[d]thiazol-2-yl)amino)cyclohexane-1,2-diol] | 50 to 400
500 to 2000 | A (A≤0.01) | O[C@@H]1CCCC[C@H]1Nc1nc2ccc(Cc3cnc4cc(-n5cncn5)ccn34)cc2s1 [Example 169, (1R,2R)-2-((6-((7-(1H-1,2,4-triazol-1-yl)imidazo[1,2-a]pyridin-3-yl)methyl)benzo[d]thiazol-2-yl)amino)cyclohexanol] | 50 to 400
500 to 2000 | A (A≤0.01) | O[C@H]1[C@@H](O)CCC[C@H]1Nc1nc2ccc(Cn3cnc4cc(F)cnc43)cc2s1 [Example 228, (1S,2R,3R)-3-((6-((6-fluoro-3H-imidazo[4,5-b]pyridin-3-yl)methyl)benzo[d]thiazol-2-yl)amino)cyclohexane-1,2-diol] | > 1500
100 to 500 | A (A≤0.01) | C=C(c1ccc2c(c1)ncn2Cc1ccc2nc(N[C@@H]3CCCC[C@H]3O)sc2c1)C(F)(F)F [Example 175, (1R,2R)-2-((6-((5-(3,3,3-trifluoroprop-1-en-2-yl)-1H-benzo[d]imidazol-1-yl)methyl)benzo[d]thiazol-2-yl)amino)cyclohexanol] | 50 to 400
100 to 500 | A (A≤0.01) | O[C@@H]1CCCC[C@H]1Nc1nc2ccc(Cn3cnc4cc(OC(F)(F)F)ccc43)cc2s1 [Example 149, (1R,2R)-2-((6-((5-(trifluoromethoxy)-1H-benzo[d]imidazol-1-yl)methyl)benzo[d]thiazol-2-yl)amino)cyclohexanol] | 50 to 400
≤ 100 | A (A≤0.01) | O=C(O)/C=C/c1ccc2c(c1)ncn2Cc1ccc2nc(N[C@@H]3CCCC[C@H]3O)sc2c1 [Example 224, (E)-3-(1-((2-(((1R,2R)-2-hydroxycyclohexyl)amino)benzo[d]thiazol-6-yl)methyl)-1H-benzo[d]imidazol-5-yl)acrylic acid] | > 1500
500 to 2000 | A (A≤0.01) | N#Cc1ccc2c(c1)ncn2Cc1ccc2nc(N[C@@H]3CCCC[C@H]3O)sc2c1 [Example 108, 1-((2-(((1R,2R)-2-hydroxycyclohexyl)amino)benzo[d]thiazol-6-yl)methyl)-1H-benzo[d]imidazole-5-carbonitrile] | 50 to 400
100 to 500 | A (A≤0.01) | Cn1nnc(-c2ccc3c(c2)ncn3Cc2ccc3nc(N[C@@H]4CCC[C@@H](O)[C@H]4O)sc3c2)n1 [Example 236, (1R,2S,3R)-3-((6-((5-(2-methyl-2H-tetrazol-5-yl)-1H-benzo[d]imidazol-1-yl)methyl)benzo[d]thiazol-2-yl)amino)cyclohexane-1,2-diol] | 50 to 400
≤ 100 | B (0.01<B≤0.02) | COc1nc2c(cc1Br)ncn2Cc1ccc2nc(N[C@@H]3CCCC[C@H]3O)sc2c1 [Example 123, (1R,2R)-2-((6-((6-bromo-5-methoxy-3H-imidazo[4,5-b]pyridin-3-yl)methyl)benzo[d]thiazol-2-yl)amino)cyclohexanol] | 50 to 400
100 to 500 | A (A≤0.01) | O[C@@H]1CCCC[C@H]1Nc1nc2ncc(Cn3cnc4cccnc43)cc2s1 [Example 114, (1R,2R)-2-((6-((3H-imidazo[4,5-b]pyridine-3-yl)methyl)thiazolo[4,5-b]pyridine-2-yl)amino)cyclohexanol] | > 1500
500 to 2000 | A (A≤0.01) | N#Cc1ccc2ncn(Cc3ccc4nc(N[C@@H]5CCCC[C@H]5O)sc4c3)c2c1 [Example 111, 1-((2-(((1R,2R)-2-hydroxycyclohexyl)amino)benzo[d]thiazol-6-yl)methyl)-1H-benzo[d]imidazole-6-carbonitrile] | 50 to 400
100 to 500 | B (0.01<B≤0.02) | CC(=O)c1ccc2ncn(Cc3ccc4nc(N[C@@H]5CCCC[C@H]5O)sc4c3)c2c1 [Example 120, 1-(1-((2-(((1R,2R)-2-hydroxycyclohexyl)amino)benzo[d]thiazol-6-yl)methyl)-1H-benzo[d]imidazol-6-yl)ethanone] | 50 to 400
100 to 500 | A (A≤0.01) | Cn1nnnc1-c1cnc2c(c1)ncn2Cc1ccc2nc(N[C@@H]3CCCC[C@H]3O)sc2c1 [Example 134, (1R,2R)-2-((6-((6-(1-methyl-1H-tetrazol-5-yl)-3H-imidazo[4,5-b]pyridin-3-yl)methyl)benzo[d]thiazol-2-yl)amino)cyclohexanol] | 50 to 400
> 2000 | A (A≤0.01) | O[C@@H]1CCCC[C@H]1Nc1nc2c(F)cc(Cn3cnc4cccnc43)c(F)c2s1 [Example 168, (1R,2R)-2-((6-((3H-imidazo[4,5-b]pyridin-3-yl)methyl)-4,7-difluorobenzo[d]thiazol-2-yl)amino)cyclohexanol] | 400 to 1500
100 to 500 | B (0.01<B≤0.02) | OCc1ccc2ncc(Cc3ccc4nc(N[C@@H]5CCCC[C@H]5O)sc4c3)n2n1 [Example 144, (1R,2R)-2-((6-((6-(hydroxymethyl)imidazo[1,2-b]pyridazin-3-yl)methyl)benzo[d]thiazol-2-yl)amino)cyclohexanol] | 50 to 400
